Measurements published in patent US20260274832A1, “COMPOUNDS AND THEIR USE IN TREATING CANCER” (ASTRAZENECA AB, priority 2023, published 2026).

Columns and labels:
[1] = molecular target: T1, AR (L702H) in LNCaP cells (Homo sapiens, UniProt P10275, L702H/T878A); test: LNCaP Androgen Receptor L702H Imaging Assay (LNCaP cells engineered by CRISPR/Cas9); format: cell-based; conditions: LNCaP cells with AR L702H mutation, 24 h incubation; for DC50: concentration giving 50% of maximum degradation of AR (L702H) per curve fit; for LNCaP AR (L702H) Degradation Dmax / Dmax: maximum degradation observed, normalized as % of positive control; for Dmax: LNCaP
T1 construct: engineered to introduce the mutation L702H into the AR gene using CRISPR/Cas9; endogenous in cells; host or cells: LNCaP cells edited by CRISPR/Cas9 at the AR gene
T1 sequence (P10275 whole entry L702H/T878A): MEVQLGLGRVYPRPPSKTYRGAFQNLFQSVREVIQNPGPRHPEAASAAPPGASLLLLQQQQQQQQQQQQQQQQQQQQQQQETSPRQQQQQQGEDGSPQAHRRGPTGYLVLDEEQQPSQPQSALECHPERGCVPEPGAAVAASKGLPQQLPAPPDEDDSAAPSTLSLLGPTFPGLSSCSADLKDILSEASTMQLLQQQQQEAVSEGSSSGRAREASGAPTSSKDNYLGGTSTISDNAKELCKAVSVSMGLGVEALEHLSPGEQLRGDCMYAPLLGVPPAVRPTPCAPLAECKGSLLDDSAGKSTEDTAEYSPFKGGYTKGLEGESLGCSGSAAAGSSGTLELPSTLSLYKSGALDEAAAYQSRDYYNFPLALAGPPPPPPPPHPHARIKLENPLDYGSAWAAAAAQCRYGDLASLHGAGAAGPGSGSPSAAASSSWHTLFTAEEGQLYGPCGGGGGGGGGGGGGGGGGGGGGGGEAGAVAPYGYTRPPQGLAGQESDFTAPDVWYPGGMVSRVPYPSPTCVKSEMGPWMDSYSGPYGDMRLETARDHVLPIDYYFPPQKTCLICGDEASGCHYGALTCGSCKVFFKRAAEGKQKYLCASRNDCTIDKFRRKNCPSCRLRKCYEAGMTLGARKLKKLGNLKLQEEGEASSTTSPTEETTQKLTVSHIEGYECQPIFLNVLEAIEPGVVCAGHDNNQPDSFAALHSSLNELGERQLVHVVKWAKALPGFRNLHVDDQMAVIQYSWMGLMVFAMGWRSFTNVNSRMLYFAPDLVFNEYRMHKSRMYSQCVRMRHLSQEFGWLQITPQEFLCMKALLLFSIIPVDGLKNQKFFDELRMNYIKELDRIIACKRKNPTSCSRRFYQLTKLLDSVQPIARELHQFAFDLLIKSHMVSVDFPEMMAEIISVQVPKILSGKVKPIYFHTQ
T1 sequence (Q96SW2 whole entry partner): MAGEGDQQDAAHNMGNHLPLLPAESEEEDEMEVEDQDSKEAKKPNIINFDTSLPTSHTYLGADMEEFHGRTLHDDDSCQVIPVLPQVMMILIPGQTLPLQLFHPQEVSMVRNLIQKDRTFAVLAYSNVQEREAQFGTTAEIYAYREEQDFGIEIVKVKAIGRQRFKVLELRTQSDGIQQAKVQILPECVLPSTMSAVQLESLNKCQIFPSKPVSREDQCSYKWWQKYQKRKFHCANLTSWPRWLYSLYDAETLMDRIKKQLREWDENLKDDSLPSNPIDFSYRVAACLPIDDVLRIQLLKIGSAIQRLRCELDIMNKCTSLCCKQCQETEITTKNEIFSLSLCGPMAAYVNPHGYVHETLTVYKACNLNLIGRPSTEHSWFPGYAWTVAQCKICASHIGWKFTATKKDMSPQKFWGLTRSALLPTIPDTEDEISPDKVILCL
Method: (§1) All work was performed in a sterile tissue culture hood up to the point of cell fixation. LNCaP cells were cultured at 6-8×10^6 per T175 flask and split every 3-4 days. Medium: RPMI (R7638, VWR Sigma) containing 10% FCS and 1% glutamine. Cells were plated in black wall transparent bottom plates at a density of 12,000 cells (Cedex™ Cell counter, Beckmann & Coulter), 40 μL per well, using a Multidrop (ThermoFisher).
(§2) Cells were dosed with test compound diluted in DMSO using an Echo 555/655™ (Labcyte) and the final concentration of DMSO in the well was 0.3%. A neutral control (DMSO) and a positive AR degrader control at 3 μM (a prior art AR PROTAC) were included. The Echo uses acoustic technology to perform direct microplate-to-microplate transfers of DMSO compound solutions to assay plates. The system can be programmed to transfer volumes as low as 2.5 nL in multiple increments between microplates and in so doing generates a serial dilution of compound in the assay plate which is then back-filled to normalise the DMSO concentration across the dilution range. Compounds were dispensed as a 12 point dose response with indicated concentrations. The plates were incubated at 37° C./5% CO2 for 24 h and then fixed and stained as below. 40 μL of 8% paraformaldehyde solution (v/v) in phosphate buffered saline (PBS) was added on top of the media already in the well using a Multidrop to fix plates giving a final concentration of 4% PFA (v/v) for 20-30 minutes (keep in fume hood to minimise PFA exposure). After 20-30 mins, the plates were washed with 3×PBS using a BioTek washer in a fume hood. A shake out of remaining volume in the well was performed to ensure best removal of remaining PBS. At this plates could be stored in PBS after washing for at least 3 days at 4° C., if so, PBS was removed by the BioTek before continuing with the next step.
(§3) The cells were incubated with a Mouse monoclonal Anti-AR antibody AR441 (DAKO M3562) (1:1000), diluted in modified blocking buffer (PBS+1% BSA+0.1% TritonX); 15 μL/well for 2 h at RT. The plates were then washed with 3×PBS using a BioTek washer. A shake out of remaining volume in the well was performed to ensure best removal of remaining PBS. Cells were then incubated with Goat anti-mouse secondary antibody 488 (Invitrogen A11001) (1:500) and nuclear stain, DRAQ5 (Abcam Ab108410) (1:2000) diluted in modified blocking buffer for 45 mins at room temperature 15 μL/well. Plates are then washed with 3×PBS using a BioTek washer, without final aspiration, and sealed with black plate seals. Plates could be stored after staining for three days at 4° C. before read if required.
(§4) Plates are read using a Cellomics Cellinsight to measure the Androgen Receptor level in each well. The data is exported into Genedata to perform curve fitting analysis. All data are normalized as % of positive control and the BellFit method automatically determines the correct fit method based on the presence of hook effect, choosing the BellFit when there is a hook and HillFit when there is no hook. Down-regulation of AR is expressed as a DC50 value and determined by calculation of the concentration of compound that is required to give 50% of maximum degradation of AR as per the curve fit for that compound. The maximum degradation observed for each compound is expressed as Dmax. The AR degradation data for compounds is shown in the table below and may be a result from a single experiment or an average of two or more experiments.
At this stage, anti-androgen therapy is largely ineffective due to AR amplification, overexpression or point mutation. One of the point mutations observed in patient populations is L702H in the AR Ligand Binding Domain. LNCAP cells have been engineered to introduce the mutation L702H into the AR gene using CRISPR/Cas9. The previously described imaging-based AR assay will monitor nuclear AR (L702H) levels in these cells to identify compounds that regulate AR (L702H). […]

[2] = molecular target: T2, AR (AR-full length) in LNCaP cells (Homo sapiens, UniProt P10275, T878A); test: LNCaP Androgen Receptor Imaging Assay (immunofluorescence of endogenous nuclear AR); format: cell-based; conditions: 24 h incubation; for DC50: concentration giving 50% of maximum degradation of AR per curve fit, single experiment or average of two or more; for LNCaP AR Degradation Dmax / Dmax: maximum degradation observed, normalized as % of positive control (prior art AR PROTAC at 3 μM); for Dmax: LNCaP
T2 construct: the prostate cancer cell line LNCaP (expressing AR-full length); endogenous in cells; host or cells: LNCaP
T2 sequence (P10275 whole entry T878A): as the sequence (P10275 whole entry L702H/T878A) above, with H702L counted along it
T2 sequence (Q96SW2 whole entry partner): as the sequence (Q96SW2 whole entry partner) above
Method: This cell-based imaging assay uses immuno-fluorescence to measure endogenous nuclear AR staining in the prostate cancer cell line LNCaP (expressing AR-full length). The purpose of the assay is to identify compounds that regulate AR protein level according to the protocol laid out in the steps below.
as §1, §2, §3, §4

| Structure (SMILES) | DC50 [1] | LNCaP AR (L702H) Degradation Dmax [1] | DC50 [2] | LNCaP AR Degradation Dmax [2] | Dmax [1] | Dmax [2] |
| --- | --- | --- | --- | --- | --- | --- |
| COc1nc(N2CCN(CC3CCN(c4ccc([C@@H]5CCCN(c6ccc(Cl)c7c(C#N)c[nH]c67)C5)cc4)CC3)CC2)cc2c1C(=O)N(C1CCC(=O)NC1=O)C2 (single isomer, unassigned) [Example 40, 4-Chloro-7-[(3S)-3-(4-{4-[(4-{2-[(3S*)-2,6-dioxopiperidin-3-yl]-4-methoxy-3-oxo-2,3-dihydro-1H-pyrrolo[3,4-c]pyridin-6-yl}piperazin-1-yl)methyl]piperidin-1-yl}phenyl)piperidin-1-yl]-1H-indole-3-carbonitrile] | 12 nM | 106% | 7 nM | 105% | – | – |
| N#Cc1c[nH]c2c(N3CCCC(c4ccc(N5CCC(CN6CCC(n7ccc8c(N9CCC(=O)NC9=O)cccc87)CC6)CC5)cn4)C3)ccc(Cl)c12 (single isomer, unassigned) [Example 65, 4-Chloro-7-[(3R*)-3-{5-[4-({4-[4-(2,4-dioxo-1,3-diazinan-1-yl)-1H-indol-1-yl]piperidin-1-yl}methyl)piperidin-1-yl]pyridin-2-yl}piperidin-1-yl]-1H-indole-3-carbonitrile] | 798 nM | – | 9 nM | – | 78% | 96% |
| N#Cc1c[nH]c2c(N3CCCC(c4ccc(N5CCC(CN6CCC(n7ccc8c(N9CCC(=O)NC9=O)cccc87)CC6)CC5)cn4)C3)ccc(Cl)c12 (single isomer, unassigned) [Example 66, 4-Chloro-7-[(3S*)-3-{5-[4-({4-[4-(2,4-dioxo-1,3-diazinan-1-yl)-1H-indol-1-yl]piperidin-1-yl}methyl)piperidin-1-yl]pyridin-2-yl}piperidin-1-yl]-1H-indole-3-carbonitrile] | 22 nM | 94% | 10 nM | 97% | – | – |
| Cc1ccc(C2CCCN(c3ccc(OCCCCN4CCN(c5ccc6c(c5)CN(C5CCC(=O)NC5=O)C6=O)CC4)cc3)C2)c2[nH]cc(C#N)c12 (single isomer, unassigned) [Example 78, 7-{(3R*)-1-[4-(4-{4-[2-(2,6-dioxopiperidin-3-yl)-1-oxo-2,3-dihydro-1H-isoindol-5-yl]piperazin-1-yl}butoxy)phenyl]piperidin-3-yl}-4-methyl-1H-indole-3-carbonitrile] | 3100 nM | 100% | 1370 nM | 70% | – | – |
| Cc1ccc(C2CCCN(c3ccc(OCCCCN4CCN(c5ccc6c(c5)CN(C5CCC(=O)NC5=O)C6=O)CC4)cc3)C2)c2[nH]cc(C#N)c12 (single isomer, unassigned) [Example 79, 7-{(3S*)-1-[4-(4-{4-[2-(2,6-dioxopiperidin-3-yl)-1-oxo-2,3-dihydro-1H-isoindol-5-yl]piperazin-1-yl}butoxy)phenyl]piperidin-3-yl}-4-methyl-1H-indole-3-carbonitrile] | 21 nM | 79% | 9 nM | 92% | – | – |
| Cc1ccc(C2CCCN(c3cccc(OCCCCN4CCN(c5ccc6c(c5)CN(C5CCC(=O)NC5=O)C6=O)CC4)c3)C2)c2[nH]cc(C#N)c12 (single isomer, unassigned) [Example 80, 7-{(3R*)-1-[3-(4-{4-[2-(2,6-dioxopiperidin-3-yl)-1-oxo-2,3-dihydro-1H-isoindol-5-yl]piperazin-1-yl}butoxy)phenyl]piperidin-3-yl}-4-methyl-1H-indole-3-carbonitrile] | 3100 nM | – | 38 nM | – | 100% | 64% |
| Cc1ccc(C2CCCN(c3cccc(OCCCCN4CCN(c5ccc6c(c5)CN(C5CCC(=O)NC5=O)C6=O)CC4)c3)C2)c2[nH]cc(C#N)c12 (single isomer, unassigned) [Example 81, 7-{(3S*)-1-[3-(4-{4-[2-(2,6-dioxopiperidin-3-yl)-1-oxo-2,3-dihydro-1H-isoindol-5-yl]piperazin-1-yl}butoxy)phenyl]piperidin-3-yl}-4-methyl-1H-indole-3-carbonitrile] | 3100 nM | 100% | > 3000 nM | – | – | – |
| Cc1ccc(C2CCCN(c3ccc(N4CCC(CN5CCN(c6ccc7c(c6)CN(C6CCC(=O)NC6=O)C7=O)CC5)CC4)cc3)C2)c2[nH]cc(C#N)c12 (single isomer, unassigned) [Example 82, 7-[(3R*)-1-{4-[4-({4-[2-(2,6-dioxopiperidin-3-yl)-1-oxo-2,3-dihydro-1H-isoindol-5-yl]piperazin-1-yl}methyl)piperidin-1-yl]phenyl}piperidin-3-yl]-4-methyl-1H-indole-3-carbonitrile] | 22 nM | – | 31 nM | – | 91% | 90% |
| Cc1ccc(C2CCCN(c3ccc(N4CCC(CN5CCN(c6ccc7c(c6)CN(C6CCC(=O)NC6=O)C7=O)CC5)CC4)cc3)C2)c2[nH]cc(C#N)c12 (single isomer, unassigned) [Example 83, 7-[(3S*)-1-{4-[4-({4-[2-(2,6-dioxopiperidin-3-yl)-1-oxo-2,3-dihydro-1H-isoindol-5-yl]piperazin-1-yl}methyl)piperidin-1-yl]phenyl}piperidin-3-yl]-4-methyl-1H-indole-3-carbonitrile] | > 3000 nM | – | 3100 nM | 100% | – | – |
| COc1nc(N2CCN(CC3CCN(c4ccc(N5CCCC(c6ccc(Cl)c7c(C#N)c[nH]c67)C5)cc4)CC3)CC2)cc2c1C(=O)N(C1CCC(=O)NC1=O)C2 (single isomer, unassigned) [Example 91, 4-Chloro-7-[(3R*)-1-{4-[4-({4-[2-(2,6-dioxopiperidin-3-yl)-4-methoxy-3-oxo-2,3-dihydro-1H-pyrrolo[3,4-c]pyridin-6-yl]piperazin-1-yl}methyl)piperidin-1-yl]phenyl}piperidin-3-yl]-1H-indole-3-carbonitrile] | 10 nM | – | 23 nM | – | 99% | 100% |
| COc1nc(N2CCN(CC3CCN(c4ccc(N5CCCC(c6ccc(Cl)c7c(C#N)c[nH]c67)C5)cc4)CC3)CC2)cc2c1C(=O)N(C1CCC(=O)NC1=O)C2 (single isomer, unassigned) [Example 92, 4-Chloro-7-[(3S*)-1-{4-[4-({4-[2-(2,6-dioxopiperidin-3-yl)-4-methoxy-3-oxo-2,3-dihydro-1H-pyrrolo[3,4-c]pyridin-6-yl]piperazin-1-yl}methyl)piperidin-1-yl]phenyl}piperidin-3-yl]-1H-indole-3-carbonitrile] | – | 100% | – | 100% | – | – |
